Measured values from PMC6941952, “A homogeneous bioluminescent immunoassay to probe cellular signaling pathway regulation” (Communications Biology, 2020).

Test system: phospho-IκBα (Ser32)
Assay: NanoBiT cell-based immunoassay, phosphorylated IκBα in MCF-7 cells
Design: species or system human
Settings: plate #2; for Subtract reagent background / Raw data: TNF
Experimental: Prior to NanoBiT Cell-Based Immunoassay, 50,000 cells were seeded in 160 µl of complete growth media per well of a 96-well plate and incubated overnight. The cells were checked under microscope and it was determined that 50,000 cells per well in 96-well plate is under 90% confluency for all cells tested. If necessary, the cell culture media were replaced with serum-free media after the cells were stably adherent on the plate and incubated overnight. To treat cells with activators or inhibitors, medium was changed to 30 µl of medium containing inhibitors. If activation of a specific pathway is needed, the cells were stimulated with 10 µl of medium containing activators. To lyse the cells, 10 µl of lysis buffer containing 0.1% digitonin diluted in 1X immunoassay buffer with protease and phosphatase inhibitors was added and the plates were mixed vigorously for 20 min. Then, 50 µl of an antibody mix containing two primary antibodies against the target protein and NanoBiT detecting antibodies (0.3 µl each per well), diluted in 1X immunoassay buffer was added to the lysates. The plates were incubated at 23 °C for 90 min, followed by the addition of 25 µl of Nano-Glo® reagent consisting of Nano-Glo® Luciferase Assay Substrate mixed with 1X immunoassay buffer. Luminescence was measured using a plate-reading luminometer.
In all, 50,000 MCF-7 cells were seeded in 160 µl complete growth medium per well of a 96-well plate and incubated overnight. Half of the cells were treated with 50 ng per ml TNFα and half with vehicle. Cells were lysed as described above and a mixture of NanoBiT secondary antibodies with primary antibodies at the matrix concentrations described in Fig. 2a were added. After 90 min incubation, the Nano-Glo® reagent was added to the reactions as described above and luminescence was measured using a plate-reading luminometer.
Single dose or dose response inhibitor treatments were performed prior to activation of the pathways as follows. For IκBα, the cells were treated in 30 µl medium with IKK16 or MG132 for 60 min before the addition of 10 µl of DMEM containing appropriate concentration of TNFα. To measure phosphorylation of AKT or STAT3, the corresponding NanoBiT immunoassays were developed with MCF-7 or A431 cells, respectively, according the same scheme used to develop the IκBα assay using the primary antibodies for AKT and STAT3 described in the reagents section. For the AKT assay, MCF-7 cells were incubated overnight in phenol-red free DMEM medium (Gibco #21063-029) without serum. Treatment with LY294002 was performed in 30 µl medium and cells were incubated for 60 min before the addition of 1 µM Insulin. To measure STAT3 phosphorylation, A431 cells were incubated overnight in DMEM medium without serum. […] After addition of the stimulators, the cells were incubated for additional times as follows. IκBα phosphorylation and degradation analyses required both time courses and single time points as described in figures. […] The NanoBiT immunoassay protocol was followed as described above.
All 96-well assay plates were read using a GloMax® 96 Microplate Luminometer from Promega. The instrument was set to 0.5 s integration time. In order to obtain net change of signal, the reagent background values (signal from the well containing all reagent except primary antibodies) were subtracted from the sample values. To plot and analyze the data, Microsoft Excel and GraphPad Prism® Software were used. IC50 values were determined by using a nonlinear regression fit to a sigmoidal dose response (variable slope).

[1] = IkB Ab #2 75 ng/ml, P-IkB Ab #1 300 ng/ml
[2] = IkB Ab #2 75 ng/ml, P-IkB Ab #1 600 ng/ml
[3] = IkB Ab #2 75 ng/ml, P-IkB Ab #1 1200 ng/ml
[4] = IkB Ab #2 150 ng/ml, P-IkB Ab #1 75 ng/ml
[5] = IkB Ab #2 150 ng/ml, P-IkB Ab #1 150 ng/ml
[6] = IkB Ab #2 150 ng/ml, P-IkB Ab #1 300 ng/ml
[7] = IkB Ab #2 150 ng/ml, P-IkB Ab #1 600 ng/ml
[8] = IkB Ab #2 150 ng/ml, P-IkB Ab #1 1200 ng/ml
[9] = IkB Ab #2 300 ng/ml, P-IkB Ab #1 75 ng/ml
[10] = IkB Ab #2 300 ng/ml, P-IkB Ab #1 150 ng/ml
[11] = IkB Ab #2 300 ng/ml, P-IkB Ab #1 300 ng/ml
[12] = IkB Ab #2 300 ng/ml, P-IkB Ab #1 600 ng/ml
[13] = IkB Ab #2 300 ng/ml, P-IkB Ab #1 1200 ng/ml
[14] = IkB Ab #2 600 ng/ml, P-IkB Ab #1 75 ng/ml
[15] = IkB Ab #2 600 ng/ml, P-IkB Ab #1 150 ng/ml
[16] = IkB Ab #2 600 ng/ml, P-IkB Ab #1 300 ng/ml
[17] = IkB Ab #2 600 ng/ml, P-IkB Ab #1 600 ng/ml
[18] = IkB Ab #2 600 ng/ml, P-IkB Ab #1 1200 ng/ml
[19] = IkB Ab #2 1200 ng/ml, P-IkB Ab #1 75 ng/ml
[20] = IkB Ab #2 1200 ng/ml, P-IkB Ab #1 150 ng/ml
[21] = IkB Ab #2 1200 ng/ml, P-IkB Ab #1 300 ng/ml
[22] = IkB Ab #2 1200 ng/ml, P-IkB Ab #1 600 ng/ml
[23] = IkB Ab #2 1200 ng/ml, P-IkB Ab #1 1200 ng/ml

With TNFα the Subtract reagent background (IkB Ab #2 75 ng/ml, P-IkB Ab #1 150 ng/ml) was 2170, the Raw data [1] was 21130 and the Subtract reagent background [1] was 2610. For the same substance, the Raw data [2] was 21060, the Subtract reagent background [2] was 2540 and the Raw data [3] was 19400. The Subtract reagent background [3] was 880, the Raw data [4] was 21700 and the Subtract reagent background [4] was 3180. For the same substance, the Raw data [5] was 21690, the Subtract reagent background [5] was 3170 and the Raw data [6] was 22220. It also gave a Subtract reagent background [6] of 3700, a Raw data [7] of 20830 and a Subtract reagent background [7] of 2310. For the same substance, the Raw data [8] was 19240, the Subtract reagent background [8] was 720 and the Raw data [9] was 22450. For the same substance, the Subtract reagent background [9] was 3930, the Raw data [10] was 22650 and the Subtract reagent background [10] was 4130. It also gave a Raw data [11] of 23650, a Subtract reagent background [11] of 5130 and a Raw data [12] of 20040. For the same substance, the Subtract reagent background [12] was 1520, the Raw data [13] was 19000 and the Subtract reagent background [13] was 480. It also gave a Raw data [14] of 22640, a Subtract reagent background [14] of 4120 and a Raw data [15] of 23720. The Subtract reagent background [15] was 5200, the Raw data [16] was 23520 and the Subtract reagent background [16] was 5000. For the same substance, the Raw data [17] was 22360, the Subtract reagent background [17] was 3840 and the Raw data [18] was 20110. It also gave a Subtract reagent background [18] of 1590, a Raw data [19] of 22600 and a Subtract reagent background [19] of 4080. It also gave a Raw data [20] of 23950, a Subtract reagent background [20] of 5430 and a Raw data [21] of 23940. The Subtract reagent background [21] was 5420, the Raw data [22] was 23180 and the Subtract reagent background [22] was 4660. For the same substance, the Raw data [23] was 21820, the Subtract reagent background [23] was 3300 and the “Fold change (TNF-treated /Non-treated)” value (IkB Ab #2 (Mouse) 75 ng/ml, P-IkB Ab #1 (Rabbit) 75 ng/ml) was 1.212. The “Fold change (TNF-treated /Non-treated)” value (IkB Ab #2 (Mouse) 75 ng/ml, P-IkB Ab #1 (Rabbit) 75 ng/ml, listed as TNF) was 1.2, the “Fold change (TNF-treated /Non-treated)” value (IkB Ab #2 (Mouse) 75 ng/ml, P-IkB Ab #1 (Rabbit) 150 ng/ml) was 1.09 and the “Fold change (TNF-treated /Non-treated)” value (IkB Ab #2 (Mouse) 75 ng/ml, P-IkB Ab #1 (Rabbit) 150 ng/ml, listed as TNF) was 1.1. The “Fold change (TNF-treated /Non-treated)” value (IkB Ab #2 (Mouse) 75 ng/ml, P-IkB Ab #1 (Rabbit) 300 ng/ml) was 1.197, the “Fold change (TNF-treated /Non-treated)” value (IkB Ab #2 (Mouse) 75 ng/ml, P-IkB Ab #1 (Rabbit) 300 ng/ml, listed as TNF) was 1.2 and the “Fold change (TNF-treated /Non-treated)” value (IkB Ab #2 (Mouse) 75 ng/ml, P-IkB Ab #1 (Rabbit) 600 ng/ml) was 1.104. The “Fold change (TNF-treated /Non-treated)” value (IkB Ab #2 (Mouse) 75 ng/ml, P-IkB Ab #1 (Rabbit) 1200 ng/ml) was 0.4356, the “Fold change (TNF-treated /Non-treated)” value (IkB Ab #2 (Mouse) 150 ng/ml, P-IkB Ab #1 (Rabbit) 150 ng/ml) was 1.447 and the “Fold change (TNF-treated /Non-treated)” value (IkB Ab #2 (Mouse) 150 ng/ml, P-IkB Ab #1 (Rabbit) 150 ng/ml, listed as TNF) was 1.4. For the same substance, the “Fold change (TNF-treated /Non-treated)” value (IkB Ab #2 (Mouse) 150 ng/ml, P-IkB Ab #1 (Rabbit) 300 ng/ml) was 1.271, the “Fold change (TNF-treated /Non-treated)” value (IkB Ab #2 (Mouse) 150 ng/ml, P-IkB Ab #1 (Rabbit) 300 ng/ml, listed as TNF) was 1.3 and the “Fold change (TNF-treated /Non-treated)” value (IkB Ab #2 (Mouse) 150 ng/ml, P-IkB Ab #1 (Rabbit) 600 ng/ml) was 0.8684. For the same substance, the “Fold change (TNF-treated /Non-treated)” value (IkB Ab #2 (Mouse) 150 ng/ml, P-IkB Ab #1 (Rabbit) 600 ng/ml, listed as TNF) was 0.9, the “Fold change (TNF-treated /Non-treated)” value (IkB Ab #2 (Mouse) 150 ng/ml, P-IkB Ab #1 (Rabbit) 1200 ng/ml) was 0.2618 and the “Fold change (TNF-treated /Non-treated)” value (IkB Ab #2 (Mouse) 150 ng/ml, P-IkB Ab #1 (Rabbit) 1200 ng/ml, listed as TNF) was 0.262. The “Fold change (TNF-treated /Non-treated)” value (IkB Ab #2 (Mouse) 300 ng/ml, P-IkB Ab #1 (Rabbit) 150 ng/ml) was 1.886, the “Fold change (TNF-treated /Non-treated)” value (IkB Ab #2 (Mouse) 300 ng/ml, P-IkB Ab #1 (Rabbit) 150 ng/ml, listed as TNF) was 1.9 and the “Fold change (TNF-treated /Non-treated)” value (IkB Ab #2 (Mouse) 300 ng/ml, P-IkB Ab #1 (Rabbit) 300 ng/ml) was 2.24. The “Fold change (TNF-treated /Non-treated)” value (IkB Ab #2 (Mouse) 300 ng/ml, P-IkB Ab #1 (Rabbit) 300 ng/ml, listed as TNF) was 2.2, the “Fold change (TNF-treated /Non-treated)” value (IkB Ab #2 (Mouse) 300 ng/ml, P-IkB Ab #1 (Rabbit) 600 ng/ml) was 1.197 and the “Fold change (TNF-treated /Non-treated)” value (IkB Ab #2 (Mouse) 300 ng/ml, P-IkB Ab #1 (Rabbit) 600 ng/ml, listed as TNF) was 1.2. For the same substance, the “Fold change (TNF-treated /Non-treated)” value (IkB Ab #2 (Mouse) 300 ng/ml, P-IkB Ab #1 (Rabbit) 1200 ng/ml) was 0.3429, the “Fold change (TNF-treated /Non-treated)” value (IkB Ab #2 (Mouse) 300 ng/ml, P-IkB Ab #1 (Rabbit) 1200 ng/ml, listed as TNF) was 0.343 and the “Fold change (TNF-treated /Non-treated)” value (IkB Ab #2 (Mouse) 600 ng/ml, P-IkB Ab #1 (Rabbit) 75 ng/ml) was 2.559. The “Fold change (TNF-treated /Non-treated)” value (IkB Ab #2 (Mouse) 600 ng/ml, P-IkB Ab #1 (Rabbit) 75 ng/ml, listed as TNF) was 2.6, the “Fold change (TNF-treated /Non-treated)” value (IkB Ab #2 (Mouse) 600 ng/ml, P-IkB Ab #1 (Rabbit) 150 ng/ml) was 2.826 and the “Fold change (TNF-treated /Non-treated)” value (IkB Ab #2 (Mouse) 600 ng/ml, P-IkB Ab #1 (Rabbit) 150 ng/ml, listed as TNF) was 2.8. The “Fold change (TNF-treated /Non-treated)” value (IkB Ab #2 (Mouse) 600 ng/ml, P-IkB Ab #1 (Rabbit) 300 ng/ml) was 2.155, the “Fold change (TNF-treated /Non-treated)” value (IkB Ab #2 (Mouse) 600 ng/ml, P-IkB Ab #1 (Rabbit) 300 ng/ml, listed as TNF) was 2.2 and the “Fold change (TNF-treated /Non-treated)” value (IkB Ab #2 (Mouse) 600 ng/ml, P-IkB Ab #1 (Rabbit) 600 ng/ml) was 2.11. For the same substance, the “Fold change (TNF-treated /Non-treated)” value (IkB Ab #2 (Mouse) 600 ng/ml, P-IkB Ab #1 (Rabbit) 600 ng/ml, listed as TNF) was 2.1 and the “Fold change (TNF-treated /Non-treated)” value (IkB Ab #2 (Mouse) 600 ng/ml, P-IkB Ab #1 (Rabbit) 1200 ng/ml) was 0.8281.
